Reference: patent US20240109903A1, “SUBSTITUTED HETEROCYCLES FOR TREATING CANCER” (Northwestern University, priority 2022, published 2024)
Like-named read-outs stand apart in the source and are kept apart here.

What was measured:
Assay type in all cases: cell-based
SW-620 = test: NCI 60 five-dose screen SW-620; details: Homo sapiens, five-dose
[1] = system: MV-4-11 acute myeloid leukemia cells; test: CellTiter-Glo 2.0 cell viability, MV-4-11; details: Homo sapiens
Protocol: 2019 October; 94(4): 1813-1823.
Cell viability was assessed using the CellTiter-Glo 2.0 assay from Promega, which yields a signal proportional to the amount of ATP present in a cell population. Compounds were first dispensed into empty 96-well flat-bottom tissue culture-treated plates (Corning) using an Echo550. MV4-1 cells were diluted to a density of 0.1 million cells per ml, pipetted onto the compounds at a density of 1,000 cells per well for U937 and 3,000 cells per well for MV4-11, mixed, and incubated for 3 days at 37° C. with 5% C02. After incubating, 5 μl of cells from each well were added to 5 μl of CellTiter-Glo 2.0 reagent in a384-well white ProxiPlate (PerkinElmer), incubated for 20 minutes at ambient temperature, and luminescence was analyzed on an EnSpire plate reader. Graphing and regression analysis was performed in Graphpad Prism.

A549/ATCC = test: NCI 60 five-dose screen A549/ATCC; details: Homo sapiens, five-dose
NCI-H23 = test: NCI 60 five-dose screen NCI-H23; details: Homo sapiens, five-dose
ACHN = test: NCI 60 five-dose screen ACHN; details: Homo sapiens, five-dose
OVCAR-4 = test: NCI 60 five-dose screen OVCAR-4; details: Homo sapiens, five-dose
M14 = test: NCI 60 five-dose screen M14; details: Homo sapiens, five-dose
DU-145 = test: NCI 60 five-dose screen DU-145; details: Homo sapiens, five-dose
MALME-3M = test: NCI 60 five-dose screen MALME-3M; details: Homo sapiens, MALME-3M, five-dose
K-562 = test: NCI 60 five-dose screen K-562; details: Homo sapiens, K562, five-dose
EKVX = test: NCI 60 five-dose screen EKVX; details: Homo sapiens, five-dose
PC-3 = test: NCI 60 five-dose screen PC-3; details: Homo sapiens, five-dose
T-47D = test: NCI 60 five-dose screen T-47D; details: Homo sapiens, T47D, five-dose
SF-295 = test: NCI 60 five-dose screen SF-295; details: Homo sapiens, five-dose
A498 = test: NCI 60 five-dose screen A498; details: Homo sapiens, five-dose
HS 578T = test: NCI 60 five-dose screen HS 578T; details: Homo sapiens, five-dose
IGROV1 = test: NCI 60 five-dose screen IGROV1; details: Homo sapiens, IGROV-1, five-dose
NCI-H522 = test: NCI 60 five-dose screen NCI-H522; details: Homo sapiens, five-dose
SK-MEL-2 = test: NCI 60 five-dose screen SK-MEL-2; details: Homo sapiens, five-dose
OVCAR-3 = test: NCI 60 five-dose screen OVCAR-3; details: Homo sapiens, five-dose
HOP-92 = test: NCI 60 five-dose screen HOP-92; details: Homo sapiens, five-dose
HCT-116 = test: NCI 60 five-dose screen HCT-116; details: Homo sapiens, five-dose
MCF7 = test: NCI 60 five-dose screen MCF7; details: Homo sapiens, five-dose
CCRF-CEM = test: NCI 60 five-dose screen CCRF-CEM; details: Homo sapiens, five-dose
[2] = read-out: LC50 (the source's name) (converted)
[3] = read-out: LC50 (the source's name)

FC(F)(F)CN1CCN(CCn2c(C(F)(F)F)cc3c(Cl)ncnc32)CC1 [NUCC-0226683]
GI50 (SW-620): 4.9 µM
IC50 (SW-620): 6.17 µM
IC (TGI) (SW-620): 19.5 µM
CC50 (SW-620; [2]): 63.1 µM
IC50 ([1]; MV4-11, 72 h, MV-4-11 cells, 3 days, CellTiter-Glo 2.0, read-out: IC50 (uM) [Cell Type: MV-4-11]): 1.83 µM
IC50 ([1]; MV4-11, bound stated in text, read-out: IC50 against MV-4-11 acute myeloid leukemia cells): < 2 µM
GI50 (A549/ATCC): 52.5 µM
IC50 (A549/ATCC): 89.1 µM
IC (TGI) (A549/ATCC): 100 µM
CC50 (A549/ATCC; [2]): ≥ 100 µM
GI50 (NCI-H23): 5.89 µM
IC50 (NCI-H23): 14.8 µM
IC (TGI) (NCI-H23): 26.9 µM
CC50 (NCI-H23; [2]): ≥ 100 µM
GI50 (ACHN): 12.3 µM
IC50 (ACHN): 22.4 µM
IC (TGI) (ACHN): 100 µM
CC50 (ACHN; [2]): ≥ 100 µM
GI50 (OVCAR-4): 26.9 µM
IC50 (OVCAR-4): 89.1 µM
IC (TGI) (OVCAR-4): 100 µM
CC50 (OVCAR-4; [2]): ≥ 100 µM
GI50 (M14): 6.17 µM
IC50 (M14): 12.3 µM
IC (TGI) (M14): 22.9 µM
CC50 (M14; [2]): 67.6 µM
GI50 (DU-145): 12.6 µM
IC50 (DU-145): 22.4 µM
IC (TGI) (DU-145): 33.1 µM
CC50 (DU-145; [2]): 87.1 µM
GI50 (MALME-3M): 14.5 µM
IC50 (MALME-3M): 33.9 µM
IC (TGI) (MALME-3M): 32.4 µM
CC50 (MALME-3M; [2]): 70.8 µM
GI50 (K-562): 2.82 µM
IC50 (K-562): 3.47 µM
IC (TGI) (K-562): 100 µM
CC50 (K-562; [3]): ≥ 100 µM
GI50 (EKVX): 11.7 µM
IC50 (EKVX): 28.8 µM
IC (TGI) (EKVX): 40.7 µM
CC50 (EKVX; [2]): ≥ 100 µM
GI50 (PC-3): 3.55 µM
IC50 (PC-3): 5.01 µM
IC (TGI) (PC-3): 12 µM
CC50 (PC-3; [2]): 57.5 µM
GI50 (T-47D): 17.4 µM
IC50 (T-47D): 49 µM
IC (TGI) (T-47D): 63.1 µM
CC50 (T-47D; [3]): ≥ 100 µM
GI50 (SF-295): 10.2 µM
IC50 (SF-295): 17.8 µM
IC (TGI) (SF-295): 25.7 µM
CC50 (SF-295; [2]): 64.6 µM
GI50 (A498): 21.4 µM
IC50 (A498): 100 µM
IC (TGI) (A498): 57.5 µM
CC50 (A498; [2]): ≥ 100 µM
GI50 (HS 578T): 14.1 µM
IC50 (HS 578T): 100 µM
IC (TGI) (HS 578T): 60.3 µM
CC50 (HS 578T; [3]): ≥ 100 µM
GI50 (IGROV1): 1.78 µM
IC50 (IGROV1): 3.16 µM
IC (TGI) (IGROV1): 3.55 µM
CC50 (IGROV1; [2]): 7.08 µM
GI50 (NCI-H522): 1.7 µM
IC50 (NCI-H522): 3.24 µM
IC (TGI) (NCI-H522): 3.55 µM
CC50 (NCI-H522; [2]): 7.24 µM
GI50 (SK-MEL-2): 15.8 µM
IC50 (SK-MEL-2): 31.6 µM
IC (TGI) (SK-MEL-2): 30.9 µM
CC50 (SK-MEL-2; [2]): 60.3 µM
GI50 (OVCAR-3): 14.5 µM
IC50 (OVCAR-3): 28.8 µM
IC (TGI) (OVCAR-3): 34.7 µM
CC50 (OVCAR-3; [2]): 83.2 µM
GI50 (HOP-92): 12.9 µM
IC50 (HOP-92): 32.4 µM
IC (TGI) (HOP-92): 29.5 µM
CC50 (HOP-92; [2]): 66.1 µM
GI50 (HCT-116): 3.16 µM
IC50 (HCT-116): 3.72 µM
IC (TGI) (HCT-116): 13.2 µM
CC50 (HCT-116; [2]): 64.6 µM
GI50 (MCF7): 10 µM
IC50 (MCF7): 15.8 µM
IC (TGI) (MCF7): 42.7 µM
CC50 (MCF7; [2]): ≥ 100 µM
GI50 (CCRF-CEM): 4.37 µM
IC50 (CCRF-CEM): 7.41 µM
IC (TGI) (CCRF-CEM): 100 µM
CC50 (CCRF-CEM; [3]): ≥ 100 µM
